These results are taken from patent publication US4617302A, “Inotropic agents” (Eli Lilly and Company, priority 1984, dated 1986).

One assay relates to Cat Papillary Muscles. Kind of assay: Positive inotropic activity in isolated cat papillary muscles. The following applies: Felis catus, control = 100 percent, average of 2 to 8 muscles, read-out: Contractility of Papillary Muscle, peak response as percent of control; for activity at 100 µM: Compound Concentration 10^-4 M; for activity at 10 µM: Compound Concentration 10^-5 M. Here is the method: Cats of either sex were anesthetized with Metofane (1,1-difluoro-2,2-dichloroethyl methyl ether, Pittman-Moore). Their hearts were immediately removed and the papillary muscles dissected and suspended in individual organ baths. A platinum hook secured one end of the muscle to an electrode mounted in the bottom of the bath, and a silk thread attached the tendon to a Statham isometric transducer. The baths contained Krebs-Henseleit solution (36° C., bubbled with 95 percent oxygen - 5 percent carbon dioxide) of the following millimolar composition: NaCl, 118; KCl, 4.5; CaCl2, 2.5; KH2 PO4, 1.1; MgSO4, 1.2; NaHCO3, 25; and glucose, 11.
A base-line tension of 1.5 g was applied to each muscle. Square-wave pulses (5.0 msec. in duration, three times threshold voltage) delivered through the hook electrode and a second electrode positioned near the top of the muscle evoked 12 contractions/minute, which were recorded on a Grass polygraph. After the muscles had equilibrated for 60 minutes, the recorder gain was adjusted so that the pen deflected 10 mm. The test compound was introduced in a solution of normal saline in an amount to bring the final concentration of the compound to 10^-5 or 10^-4 molar. Increases in contractility were tabulated as millimeters of pen deflection in excess of the baseline value. In each experiment the maximum contractility was measured. Test results are summarized in Table I and are expressed as percent of control (control=100 percent). Values are the average of results from 2 to 8 muscles.

For assay [1], the system named is anesthetized dog (ventricular contractility). Briefly: Ventricular contractility in the anesthetized dog. Format: in vivo. The following applies: Canis lupus familiaris, iv; anesthetized mongrel dogs, i.v. bolus in normal saline; by interpolation; read-out: ED50, dose required to produce a peak increase in contractility of 50%. Here is the method: Mongrel dogs of either sex ranging in weight from 7 to 14 kg were used. Anesthesia was induced with sodium pentobarbital (30 mg/kg, i.v.) and maintained with supplemental doses as required. A positive-pressure pump was used to ventilate the dogs through an endotracheal tube (18 strokes/minute, 20 ml/kg stroke^-1), and a heating pad kept the body temperature at 37°-38° C.
Femoral arterial blood pressure was measured through a polyethylene catheter filled with heparin solution (16 units/ml) and connected to a Statham pressure transducer. A strain-gauge arch sutured to the right ventricle of the heart measured cardiac contractility. Tension on the gauge was adjusted to 50 g and the gain of the recorder (Beckman dynograph) was set so that 50 g caused a 10-mm pen deflection. Cardiac contractile tension was measured as millimeters of pen deflection or grams of tension. The test compounds were administered as an i.v. bolus (2-5 ml) in a normal saline vehicle following a 30-45 minute equilibrium period. […] The maximum effects on contractility at various dose levels were determined and plotted and the dose required to produce a 50% increase in contractility (ED50) was determined by interpolation.

The test system of assay [2] is conscious dogs (contractility, LVdP/dt). Kind of assay: Cardiac contractility in conscious dogs. Format: in vivo. Conditions: Canis lupus familiaris, po; conscious mongrel dogs, fasted eighteen hours, administered in gelatin capsules; by interpolation; read-out: ED50, dose required to produce a 50-percent increase in contractility. From the text:
Mongrel dogs of either sex weighing 15-36 kg were chronically instrumented to monitor peak systolic pressure, heart rate, left ventricular pressure and its first derivative, LVdP/dt at 60 mm of mercury. Under halothane-nitrous oxide anesthesia, a precalibrated Konigsberg P22 Pressure Transducer was implanted into the left ventricle through a stab wound at the apex. Following recovery from surgery, a minimum of two weeks was allowed to train the dogs to lie quietly for four-hour periods. This conditioning was necessary to obtain stable, reproducible results from day to day. Dogs were fasted eighteen hours before an experiment. Gross behavioral observations of animals were made throughout each study. Compounds or placebo (lactose) were administered in gelatin capsules. The maximum effects on contractility at various dose levels were determined and plotted and the dose required to produce a 50-percent increase in contractility (ED50) was determined by interpolation. The ED50 for the compound of Example 1 was determined to be 50 mcg/kg.

Take `O=C1CCC(c2ccc3c(c2)C2(CCCC2)C(=O)N3)=NN1` [Example 2, 5'-(1,4,5,6-tetrahydro-6-oxo-3-pyridazinyl)-spiro[cyclopentane-1,3'-[3H]indol]-2'(1'H)-one]: in the assay with Cat Papillary Muscles, the activity at 100 µM was determined as 134% and the activity at 10 µM stood at 132%. For the same compound, the median effective dose (ED50) – broadly, the midpoint of the dose-response relation – in assay [1] is 0.07 mg/kg.

For `O=C1CCC(c2ccc3c(c2)C2(CC2)C(=O)N3)=NN1` [Example 1, 5'-(1,4,5,6-tetrahydro-6-oxo-3-pyridazinyl)-spiro[cyclopropane-1,3'-[3H]indol]-2'(1'H)-one], the figures for the median effective dose (ED50) in assay [2] and in assay [1] were 0.05 mg/kg and 0.0019 mg/kg, respectively.

Regarding `O=C1CCC(c2ccc3c(c2)C2(CCC2)C(=O)N3)=NN1` [Example 3, 5'-(1,4,5,6-tetrahydro-6-oxo-3-pyridazinyl)-spiro[cyclobutane-1,3'-[3H]indol]-2'(1'H)-one], in the assay with Cat Papillary Muscles, the activity at 100 µM amounted to 132% and the activity at 10 µM was 138%. Further, the ED50 in assay [1] worked out at 0.025 mg/kg.
